From article PMC6858373 (Scientific Reports, 2019)
Read-outs that look alike come from different tables or passages of the source.

Experiments:
[1] = target: T1, FGF14:Nav1.6 C-tail complex (Homo sapiens, UniProt Q92915+Q9UQD0); assay: Split-luciferase complementation assay (LCA) in Clone V double stable HEK293 cells; type: cell-based; settings: for Split Luciferase Assay % Lum Set 1 / Split Luciferase Assay Z-score Set 1: biological replicate Set 1; for Split Luciferase Assay % Lum Set 1 / Split Luciferase Assay %Lum Set 2: normalized to on-plate 0.3% DMSO controls (n=16 per plate); for Split Luciferase Assay %Lum Set 2 / Split Luciferase Assay Z-score Set 2: biological replicate Set 2; for Split Luciferase Assay Z-score Set 1 / Split Luciferase Assay Z-score Set 2: normalized to on-plate 0.3% DMSO controls; for Split Luciferase Assay %Lum Avg: average of Set 1 and Set 2, normalized to 0.3% DMSO controls
T1 construct: polymerase chain reaction (PCR) amplification of the FGF14 open reading frame (nt 1–855); C-terminal fragment of Nav1.6 (amino acids 1763–1976) fused with CD4ΔC-tail (amino acids 1–395); expressed in transfected cells
T1 sequence (Q92915 1-252 isoform Q92915-2): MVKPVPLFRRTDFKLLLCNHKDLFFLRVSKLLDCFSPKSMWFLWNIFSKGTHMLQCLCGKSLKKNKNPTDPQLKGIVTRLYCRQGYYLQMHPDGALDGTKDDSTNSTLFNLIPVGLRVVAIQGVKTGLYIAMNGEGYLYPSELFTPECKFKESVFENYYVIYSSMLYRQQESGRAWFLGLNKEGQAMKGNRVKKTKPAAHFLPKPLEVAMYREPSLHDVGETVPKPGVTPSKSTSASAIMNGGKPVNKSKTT
T1 sequence (Q9UQD0 1763-1976 limits assumed): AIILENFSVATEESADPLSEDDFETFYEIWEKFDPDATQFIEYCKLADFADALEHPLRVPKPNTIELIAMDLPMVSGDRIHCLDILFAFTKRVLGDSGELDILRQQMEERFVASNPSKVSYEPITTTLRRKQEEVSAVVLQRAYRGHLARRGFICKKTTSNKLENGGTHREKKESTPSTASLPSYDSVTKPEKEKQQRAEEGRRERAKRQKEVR

[2] = target: full-length P. pyralis luciferase (Photinus pyralis, UniProt P08659, K549A/L550V/N119G/N50D/S548I); type: cell-based; settings: CC_NCI screening, normalized to on-plate 0.3% DMSO controls; for Luciferase Assay % Lum: full-length luciferase counter-screen luminescence; for Luciferase Assay Z-score: full-length luciferase counter-screen
Chain of full-length P. pyralis luciferase (P08659 whole entry N50D/N119G/S548I/K549A/L550V, looked up): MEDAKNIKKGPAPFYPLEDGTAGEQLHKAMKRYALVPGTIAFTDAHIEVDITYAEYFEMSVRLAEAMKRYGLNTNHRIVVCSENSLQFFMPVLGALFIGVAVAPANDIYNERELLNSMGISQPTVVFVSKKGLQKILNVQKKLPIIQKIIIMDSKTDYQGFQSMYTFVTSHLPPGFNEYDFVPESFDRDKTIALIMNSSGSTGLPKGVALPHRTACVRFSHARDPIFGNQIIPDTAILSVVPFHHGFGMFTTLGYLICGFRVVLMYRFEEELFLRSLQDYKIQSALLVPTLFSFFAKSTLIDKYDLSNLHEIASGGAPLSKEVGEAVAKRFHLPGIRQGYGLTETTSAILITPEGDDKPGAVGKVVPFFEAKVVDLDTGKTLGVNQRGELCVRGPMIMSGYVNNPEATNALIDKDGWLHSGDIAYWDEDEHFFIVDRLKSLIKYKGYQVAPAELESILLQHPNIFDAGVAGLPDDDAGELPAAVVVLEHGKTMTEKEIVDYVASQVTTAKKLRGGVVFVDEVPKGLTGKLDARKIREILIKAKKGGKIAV

[3] = CC_NCI screening, LCA luminescence

## NC1(c2ccc(-c3nc4ccn5c(=O)[nH]nc5c4cc3-c3ccccc3)cc2)CCC1 [MK-2206]
[1]; [3]
  Split Luciferase Assay % Lum Set 1: 48.16%
  Split Luciferase Assay %Lum Set 2: 47.85%
[1]; CC_NCI screening, LCA
  Split Luciferase Assay Z-score Set 1: -4.19
  Split Luciferase Assay Z-score Set 2: -4.24
[1]; CC_NCI screening
  Split Luciferase Assay %Lum Avg: 48.01%
[2]
  Luciferase Assay % Lum: 85.95%
  Luciferase Assay Z-score: -1.80
Clone V cells; human, 16 h, 30 µM
  Toxicity Assay % Fluor: 95.56%
  Toxicity Assay Z-score: -0.62

## Nc1ccccc1NC(=O)c1ccc(CNC(=O)OCc2cccnc2)cc1 [MS-275]
[1]; CC_NCI screening
  Split Luciferase Assay Z-score Set 1: -2.96
  Split Luciferase Assay % Lum Set 1: 63.38%
  Split Luciferase Assay Z-score Set 2: -2.38
  Split Luciferase Assay %Lum Set 2: 70.74%
[1]
  Split Luciferase Assay %Lum Avg: 67.06%
[2]
  Luciferase Assay % Lum (full-length luciferase counter-screen): 107.21%
  Luciferase Assay Z-score (full-length luciferase counter-screen): 0.92
Clone V cells
  Toxicity Assay % Fluor (CTB cell viability fluorescence): 101.17%
  Toxicity Assay Z-score (CTB cell viability): 0.16

## Cl.N[C@@H](Cc1ccc(N(CCCl)CCCl)cc1)C(=O)O [Melphalan hydrochloride]
[1]; CC_NCI screening
  Split Luciferase Assay Z-score Set 1: -1.64
  Split Luciferase Assay % Lum Set 1: 79.68%
  Split Luciferase Assay Z-score Set 2: -0.10
  Split Luciferase Assay %Lum Set 2: 98.83%
[1]
  Split Luciferase Assay %Lum Avg: 89.26%
[2]
  Luciferase Assay % Lum (full-length luciferase counter-screen): 85.47%
  Luciferase Assay Z-score (full-length luciferase counter-screen): -1.86
Clone V cells
  Toxicity Assay % Fluor (CTB cell viability fluorescence): 107.21%
  Toxicity Assay Z-score (CTB cell viability): 1.01

## O=C1c2c(O)ccc(O)c2C(=O)c2c(NCCNCCO)ccc(NCCNCCO)c21 [Mitoxantrone]
[1]; [3]
  Split Luciferase Assay % Lum Set 1: 5.76%
  Split Luciferase Assay %Lum Set 2: 15.60%
[1]; CC_NCI screening, LCA
  Split Luciferase Assay Z-score Set 1: -7.62
  Split Luciferase Assay Z-score Set 2: -6.87
[1]; CC_NCI screening
  Split Luciferase Assay %Lum Avg: 10.68%
[2]
  Luciferase Assay % Lum: 40.29%
  Luciferase Assay Z-score: -7.65
Clone V cells; human, 16 h, 30 µM
  Toxicity Assay % Fluor: 90.67%
  Toxicity Assay Z-score: -1.30

## Cc1cn(-c2cc(NC(=O)c3ccc(C)c(Nc4nccc(-c5cccnc5)n4)c3)cc(C(F)(F)F)c2)cn1 [NILOTINIB]
[1]; [3]
  Split Luciferase Assay % Lum Set 1: 109.04%
  Split Luciferase Assay %Lum Set 2: 122.76%
[1]; CC_NCI screening, LCA
  Split Luciferase Assay Z-score Set 1: 0.73
  Split Luciferase Assay Z-score Set 2: 1.85
[1]; CC_NCI screening
  Split Luciferase Assay %Lum Avg: 115.90%
[2]
  Luciferase Assay % Lum: 102.54%
  Luciferase Assay Z-score: 0.33
Clone V cells
  Toxicity Assay % Fluor: 88.70%
  Toxicity Assay Z-score: -1.58

## CCN(CC)CCCC(C)Nc1nc(C)cc(Nc2ccc3nc(C)cc(N)c3c2)n1 (centres unmarked) [NSC23766]
[1]; CC_NCI screening
  Split Luciferase Assay Z-score Set 1: 0.12
  Split Luciferase Assay % Lum Set 1: 101.43%
  Split Luciferase Assay Z-score Set 2: -0.01
  Split Luciferase Assay %Lum Set 2: 99.87%
[1]
  Split Luciferase Assay %Lum Avg: 100.65%
[2]
  Luciferase Assay Z-score (full-length luciferase counter-screen): 0.79
Clone V cells
  Toxicity Assay % Fluor (CTB cell viability fluorescence): 111.37%
  Toxicity Assay Z-score (CTB cell viability): 1.59

## COc1ccc(OC)c2c(=S)c3ccccc3[nH]c12 [NSC 625987]
[1]; CC_NCI screening
  Split Luciferase Assay Z-score Set 1: -1.20
  Split Luciferase Assay % Lum Set 1: 85.12%
  Split Luciferase Assay Z-score Set 2: -1.20
  Split Luciferase Assay %Lum Set 2: 85.31%
[1]
  Split Luciferase Assay %Lum Avg: 85.21%
[2]
  Luciferase Assay % Lum (full-length luciferase counter-screen): 78.37%
  Luciferase Assay Z-score (full-length luciferase counter-screen): -2.77
Clone V cells
  Toxicity Assay % Fluor (CTB cell viability fluorescence): 109.17%
  Toxicity Assay Z-score (CTB cell viability): 1.28

## CCNC(=O)c1noc(-c2cc(C(C)C)c(O)cc2O)c1-c1ccc(CN2CCOCC2)cc1 [NVP AUY922]
[1]; [3]
  Split Luciferase Assay % Lum Set 1: 40.55%
  Split Luciferase Assay %Lum Set 2: 50.98%
[1]; CC_NCI screening, LCA
  Split Luciferase Assay Z-score Set 1: -4.80
  Split Luciferase Assay Z-score Set 2: -3.99
[1]; CC_NCI screening
  Split Luciferase Assay %Lum Avg: 45.76%
[2]
  Luciferase Assay % Lum: 86.39%
  Luciferase Assay Z-score: -1.74
Clone V cells; human, 16 h, 30 µM
  Toxicity Assay % Fluor: 88.69%
  Toxicity Assay Z-score: -1.58

## O=C(/C=C/c1ccc(CN(CCO)CCc2c[nH]c3ccccc23)cc1)NO [NVP LAQ824]
[1]; [3]
  Split Luciferase Assay % Lum Set 1: 93.82%
  Split Luciferase Assay %Lum Set 2: 83.22%
[1]; CC_NCI screening, LCA
  Split Luciferase Assay Z-score Set 1: -0.50
  Split Luciferase Assay Z-score Set 2: -1.36
[1]; CC_NCI screening
  Split Luciferase Assay %Lum Avg: 88.52%
[2]
  Luciferase Assay % Lum: 95.25%
  Luciferase Assay Z-score: -0.61
Clone V cells; human, 16 h, 30 µM
  Toxicity Assay % Fluor: 98.78%
  Toxicity Assay Z-score: -0.17
